In the supplement of paper PMC8671470:

Tests used:
Details in all cases: 72 h
BV-173 = test system: BV-173
In short: (§1)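 Fifteen myeloid leukaemia lines in RPMI 1640 were treated for 72 h at 37 °C and 5% CO2 with five tenfold doses from 1 to 10,000 nM, in duplicate. ATP luminescence was normalised to vehicle and to a positive control at 10 µM, then fitted with a four-parameter log-logistic model. The IC50 came from these fits.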

HEL = test system: HEL
In short: as §1

K-562 = test system: K-562
In short: as §1

KU-812 = test system: KU-812
In short: as §1

LAMA-84 = test system: LAMA-84
In short: as §1

MOLM-13 = test system: MOLM-13
In short: as §1

MV4-11 = test system: MV4-11
In short: as §1

Mono-Mac-6 = test system: Mono-Mac-6
In short: as §1

SHI-1 = test system: SHI-1
In short: as §1

THP-1 = test system: THP-1
In short: as §1

[1] = test system: myeloid leukemia patient primary cells Pat.10; test: cell viability (% survival relative to DMSO control); higher = less cytotoxic
In short: (§2)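 Thawed mononuclear cells from AML or CML patients were purified on Ficoll and cultured for 72 h in RPMI 1640 with 10% FBS, at 10,000 cells/well, on 384-well plates carrying 70 pre-printed compounds at 1–10,000 nM in five tenfold steps, in duplicate. Viability came from CellTiter-Glo, normalised against DMSO and against 10 μM proteasome inhibitor. Any area under the curve given was derived from log-logistic curve fits in the drc and PharmacoGx R packages, and these fits had four parameters.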

[2] = test system: myeloid leukemia patient primary cells Pat.11; test: as above
In short: as §2

[3] = test system: myeloid leukemia patient primary cells Pat.12; test: as above
In short: as §2

[4] = test system: myeloid leukemia patient primary cells Pat.13; test: as above
In short: as §2

[5] = test system: myeloid leukemia patient primary cells Pat.14; test: as above
In short: as §2

[6] = test system: myeloid leukemia patient primary cells Pat.15; test: as above
In short: as §2

[7] = test system: myeloid leukemia patient primary cells Pat.1; test: as above
In short: as §2

[8] = test system: myeloid leukemia patient primary cells Pat.2; test: as above
In short: as §2

[9] = test system: myeloid leukemia patient primary cells Pat.3; test: as above
In short: as §2

[10] = test system: myeloid leukemia patient primary cells Pat.4; test: as above
In short: as §2

[11] = test system: myeloid leukemia patient primary cells Pat.5; test: as above
In short: as §2

[12] = test system: myeloid leukemia patient primary cells Pat.6; test: as above
In short: as §2

[13] = test system: myeloid leukemia patient primary cells Pat.7; test: as above
In short: as §2

[14] = test system: myeloid leukemia patient primary cells Pat.8; test: as above
In short: as §2

[15] = test system: myeloid leukemia patient primary cells Pat.9; test: as above
In short: as §2

HL-60 = test: area under dose-response curve (viability, 1 nM-10 uM) (fraction (0-1)); higher = more sensitive
In short: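 A rescreen of the full library used HL-60 cells in RPMI 1640 with 10% FBS on 384-well plates, run in duplicate at five tenfold concentrations (1–10,000 nM). Each screen included DMSO or 100 nM of one of three metabolic inhibitors and ran 72 h at 37 °C, 5% CO2. CellTiter-Glo viability was scaled between DMSO and 10 μM proteasome-inhibitor wells. Any area under the curve comes from four-parameter log-logistic fits with drc and PharmacoGx.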

Structure (SMILES): CN1CCN(CCCN2c3ccccc3Sc3ccc(C(F)(F)F)cc32)CC1 [Trifluoperazine]
- IC50 (cell viability) (BV-173): > 10 µM
- IC50 (cell viability) (HEL): > 10 µM
- IC50 (cell viability) (K-562): 2.91 µM
- IC50 (cell viability) (KU-812): > 10 µM
- IC50 (cell viability) (LAMA-84): > 10 µM
- IC50 (cell viability) (MOLM-13): > 10 µM
- IC50 (cell viability) (MV4-11): 9.52 µM
- IC50 (cell viability) (Mono-Mac-6): > 10 µM
- IC50 (cell viability) (SHI-1): > 10 µM
- IC50 (cell viability) (THP-1): > 10 µM
- cell viability ([1]; 1 nM): 55.5%
- cell viability ([1]; 10 nM): 91.7%
- cell viability ([1]; 100 nM): 70.3%
- cell viability ([1]; 1000 nM): 13.3%
- cell viability ([1]; 10000 nM): 9.9%
- cell viability ([2]; 1 nM): > 100%
- cell viability ([2]; 10 nM): 100%
- cell viability ([2]; 100 nM): 99.9%
- cell viability ([2]; 1000 nM): 77.4%
- cell viability ([2]; 10000 nM): 12%
- cell viability ([3]; 1 nM): 95.7%
- cell viability ([3]; 10 nM): 89.5%
- cell viability ([3]; 100 nM): 95.9%
- cell viability ([3]; 1000 nM): 87%
- cell viability ([3]; 10000 nM): 38.3%
- cell viability ([4]; 1 nM): 90.5%
- cell viability ([4]; 10 nM): 90.8%
- cell viability ([4]; 100 nM): 99.3%
- cell viability ([4]; 1000 nM): 56.4%
- cell viability ([4]; 10000 nM): 39.1%
- cell viability ([5]; 1 nM): 89.2%
- cell viability ([5]; 10 nM): 85.5%
- cell viability ([5]; 100 nM): 86.6%
- cell viability ([5]; 1000 nM): 26.5%
- cell viability ([5]; 10000 nM): 1.65%
- cell viability ([6]; 1 nM): 98.2%
- cell viability ([6]; 10 nM): 91.9%
- cell viability ([6]; 100 nM): > 100%
- cell viability ([6]; 1000 nM): 78.4%
- cell viability ([6]; 10000 nM): 45.9%
- cell viability ([7]; 1 nM): 97.8%
- cell viability ([7]; 10 nM): 93.7%
- cell viability ([7]; 100 nM): 94.1%
- cell viability ([7]; 1000 nM): 56%
- cell viability ([7]; 10000 nM): 19.4%
- cell viability ([8]; 1 nM): > 100%
- cell viability ([8]; 10 nM): > 100%
- cell viability ([8]; 100 nM): > 100%
- cell viability ([8]; 1000 nM): 75.6%
- cell viability ([8]; 10000 nM): 48.6%
- cell viability ([9]; 1 nM): 99.7%
- cell viability ([9]; 10 nM): 80.7%
- cell viability ([9]; 100 nM): 65.1%
- cell viability ([9]; 1000 nM): 11.8%
- cell viability ([9]; 10000 nM): 0.738%
- cell viability ([10]; 1 nM): 84.5%
- cell viability ([10]; 10 nM): 98.7%
- cell viability ([10]; 100 nM): 97.6%
- cell viability ([10]; 1000 nM): 75.1%
- cell viability ([10]; 10000 nM): 15.8%
- cell viability ([11]; 1 nM): 99.9%
- cell viability ([11]; 10 nM): 49.2%
- cell viability ([11]; 100 nM): 88%
- cell viability ([11]; 1000 nM): 0.912%
- cell viability ([11]; 10000 nM): 3.33%
- cell viability ([12]; 1 nM): 98.8%
- cell viability ([12]; 10 nM): 94.2%
- cell viability ([12]; 100 nM): 97.8%
- cell viability ([12]; 1000 nM): 63.5%
- cell viability ([12]; 10000 nM): 23.8%
- cell viability ([13]; 1 nM): 87.1%
- cell viability ([13]; 10 nM): 68.6%
- cell viability ([13]; 100 nM): 42.7%
- cell viability ([13]; 1000 nM): < 0%
- cell viability ([13]; 10000 nM): < 0%
- cell viability ([14]; 1 nM): 80%
- cell viability ([14]; 10 nM): 88.9%
- cell viability ([14]; 100 nM): 91.3%
- cell viability ([14]; 1000 nM): 69.8%
- cell viability ([14]; 10000 nM): 41.6%
- cell viability ([15]; 1 nM): 79.5%
- cell viability ([15]; 10 nM): 52.7%
- cell viability ([15]; 100 nM): 65.3%
- cell viability ([15]; 1000 nM): 0.773%
- cell viability ([15]; 10000 nM): 1.6%

Structure (SMILES): CC(C)CC(=O)N[C@H](C(=O)N[C@H](C(=O)N[C@@H](CC(C)C)[C@@H](O)CC(=O)N[C@@H](C)C(=O)N[C@@H](CC(C)C)[C@@H](O)CC(=O)O)C(C)C)C(C)C [Pepstatin A]
- IC50 (cell viability) (BV-173): > 10 µM
- IC50 (cell viability) (HEL): > 10 µM
- IC50 (cell viability) (K-562): > 10 µM
- IC50 (cell viability) (KU-812): > 10 µM
- IC50 (cell viability) (LAMA-84): > 10 µM
- IC50 (cell viability) (MOLM-13): > 10 µM
- IC50 (cell viability) (MV4-11): > 10 µM
- IC50 (cell viability) (Mono-Mac-6): > 10 µM
- IC50 (cell viability) (SHI-1): > 10 µM
- IC50 (cell viability) (THP-1): > 10 µM
- area under dose-response curve (HL-60; co-treatment: AZD3965 100 nM): < 0.0301
- area under dose-response curve (HL-60; co-treatment: DMSO vehicle): < 0.0301
- area under dose-response curve (HL-60; co-treatment: GSK2194069 100 nM): < 0.0301
- area under dose-response curve (HL-60; co-treatment: pictilisib 100 nM): < 0.0301
